How the values were obtained:
[1] = Pharmacokinetics of esketamine nasal spray, 14 Phase 1 studies (Example 10); settings: young adult subjects
Experimental: The data herein was assembled from 14 Phase 1 studies; each Phase 1 study was performed similarly to the study outlined in Example 9 in which the PK of esketamine was assessed.

[2] = tested on: CYP2B6 and CYP3A4 and to a lesser extent CYP2C9 and CYP2C19; assay: Metabolism by cytochrome P450 enzymes; settings: human
male and female rats = assay: Fertility study in male and female rats; assay type: in vivo, rat
Experimental: (§1) The No Observed Adverse Effect Level (NOAEL) for mating and fertility is 45 mg/kg/day which is 0.6 times the esketamine exposures at MRHD of 84 mg/day.

[3] = Fertility study in male and female rats; assay type: in vivo, rat; settings: both sexes, rat, in vivo, inhaled or intranasal; read-out: NOAEL for mating and fertility
Experimental: as §1

SMILES: CN[C@]1(c2ccccc2Cl)CCCCC1=O [esketamine, (S)-2-(2-chlorophenyl)-2-(methylamino)cyclohexanone]
- Tmax, range of median values ([1]; single dose esketamine nasal spray 28 mg, n = 64): 19.8 to 40.2 min
- Tmax, range of median values ([1]; single dose esketamine nasal spray 56 mg, n = 86): 30 to 46.2 min
- Tmax, range of median values ([1]; single dose esketamine nasal spray 84 mg, n = 167): 31.8 to 49.8 min
- Metabolic pathway [2]: primarily metabolized to noresketamine metabolite via cytochrome P450 (CYP) enzymes CYP2B6 and CYP3A4
- Mean AUC exposure, multiple of the MRHD of 84 mg/day (male and female rats; 4.5 mg/kg/day intranasal): approximately 0.05 times
- Mean AUC exposure, multiple of the MRHD of 84 mg/day (male and female rats; 15 mg/kg/day intranasal): ~0.3 times
- Mean AUC exposure, multiple of the MRHD of 84 mg/day (male and female rats; 45 mg/kg/day intranasal): ~0.6 times
- NOAEL [3]: 45 mg/kg/day
